This note sets out measurements from patent US12521395B2, “Gem-disubstituted heterocyclic compounds and their use as IDH inhibitors” (NERVIANO MEDICAL SCIENCES S.R.L., priority 2019, dated 2026).

For experiment [1], the target named is IDH1^R132H (Homo sapiens, UniProt O75874, R132H). Briefly: NADPH depletion assay (diaphorase/resazurin), IDH1 R132H. In kind it is biochemical. Conditions: 15 min preincubation, 60 min reaction, room temperature. On the procedure:
(§1) IDH mutated enzyme activity converting alpha-ketoglutarate to 2-hydroxyglutaric acid is measured using a NADPH depletion assay. In the assay the remaining cofactor is measured at the end of the reaction with the addition of a catalytic excess of diaphorase and resazurin, to generate a fluorescent signal in proportion to the amount of NADPH remaining. IDH1 WT enzyme as well as mutated isoforms IDH1^R132H, IDH1^R132C, and IDH2^R172K enzymes are commercially available proteins (see e.g. Sino Biological, Abcam, Active Motif or Creative BioMart).
(§2) IDH1^R132H homodimer enzyme are diluted to 8 nM, in 10 μL of Assay Buffer (150 mM NaCl, 50 mM Tris-HCl pH 7.6, 10 mM MgCl2, 0.001% Triton X-100, 4 mM β-mercaptoethanol); 0.2 μL of test compound, previously serially diluted 1 to 3, >10 experimental points from 1 mM in DMSO, is added and the mixture is incubated for 15 minutes at room temperature. The reaction is started with the addition of 10 μL of Substrate Mix (12 μM NADPH, 3.4 mM alpha-ketoglutarate in Assay Buffer) and the mixture is incubated for 60 minutes at room temperature. The reaction is terminated with the addition of 5 μl of Detection Buffer (100 μg/mL diaphorase, 30 μM resazurin, in IX Assay Buffer), and is incubated for 15 minutes before reading on a ViewLux as platereader at Ex544/Em590.
On the technique in general: The colour change of resazurin is a common sign of viable cells or microbes.

The target of experiment [2] is IDH1^R132C (Homo sapiens, UniProt O75874, R132C). The experiment in a line: NADPH depletion assay (diaphorase/resazurin), IDH1 R132C. In kind it is biochemical. As to conditions: IDH1^R132C 2 nM, alpha-ketoglutarate 0.14 mM; read-out: IDH1^R132C IC50. The procedure:
as §1, §2
Compounds are assayed for their activity against IDH1^R132C following the same assay as above with the following modifications: IDH1^R132C and alpha-ketoglutarate final concentrations in the Assay Buffer is 2 nM and 0.14 mM, respectively.

Experiment [3] has as its target T1, IDH2^R172K (Homo sapiens, UniProt P48735, R172K).
T1 sequence (P48735 40-452 R172K): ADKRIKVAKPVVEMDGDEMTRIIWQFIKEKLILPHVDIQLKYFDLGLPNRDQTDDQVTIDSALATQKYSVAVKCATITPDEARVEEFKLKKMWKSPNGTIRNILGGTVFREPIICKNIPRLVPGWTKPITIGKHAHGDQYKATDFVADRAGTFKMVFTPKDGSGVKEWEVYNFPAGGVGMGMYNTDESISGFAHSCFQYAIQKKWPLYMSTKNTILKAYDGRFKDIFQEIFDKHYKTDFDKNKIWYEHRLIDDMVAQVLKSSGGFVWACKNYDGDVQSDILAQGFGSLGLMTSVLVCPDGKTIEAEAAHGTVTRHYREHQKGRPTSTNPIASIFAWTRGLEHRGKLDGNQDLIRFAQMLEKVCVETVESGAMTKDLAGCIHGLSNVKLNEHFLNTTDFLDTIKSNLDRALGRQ
The experiment in a line: NADPH depletion assay (diaphorase/resazurin), IDH2 R172K. In kind it is biochemical. Conditions: IDH2^R172K 16 nM, alpha-ketoglutarate 0.55 mM. On the procedure: as §1, §2
Compounds are assayed for their activity against IDH2^R172K following the same assay as above with the following modifications: IDH2^R172K and alpha-ketoglutarate final concentrations in the Assay Buffer is 16 nM and 0.55 mM, respectively.

Experiment [4] concerns the target IDH1 wild type enzyme (Homo sapiens, UniProt O75874). The experiment in a line: Enzymatic assay for IDH1 wild-type (NADPH forming assay). Conditions: 0.016 nM IDH1WT, 15 min preincubation. In kind it is biochemical. On the procedure:
IDH1WT enzymatic activity converting isocitric acid to alpha-ketoglutarate is measured using a NADPH forming assay. In the assay the forming cofactor is measured in continuous with the addition of a catalytic excess of diaphorase and resazurin, to generate a fluorescent signal in proportion to the amount of NADPH forming.
Compounds were preincubated with the enzyme, then the reaction was started by the addition of NADP+, isocitrate, diaphorase and a corresponding substrate, resazurin. Diaphorase reduces resazurin to the highly fluorescent resorufin with the concomitant oxidation of NADPH to NADP. Specifically, 0.2 μL of test compound, previously serially diluted 1 to 3, >10 experimental points from 1 mM in DMSO, was added to 0.016 nM IDH1WT enzyme in 10 μL of Assay Buffer (150 mM NaCl, 50 mM Tris-HCl pH 7.6, 10 mM MgCl2, 0.001% Triton X-100, 4 mM β-mercaptoethanol); the mixture is incubated for 15 minutes at room temperature. The reaction is started with the addition of 10 μL of Substrate Mix (400 μM NADP^+, 40 μM iso-citrate, 5 ugr/mL Diaphorase and 7 μM resazurin in Assay Buffer), the mixture is incubated at room temperature and the reaction is reading on a ViewLux as platereader at Ex544/Em590 in continuous.

Experiment [5] deals with cell lines HT-1080 (IDH1^R132C). Briefly: Cellular assay: inhibition of 2HG production, LC-MS/MS. It is filed as cell-based. As to conditions: Homo sapiens, 72 hr incubation, 2-HG in cell culture media, read-out: HT1080 2-HG IC50. The procedure:
Cell lines HT-1080 (commercially available) are maintained in E-MEM 10% FCS and incubated at 37° C. in a humidified 5% CO2 atmosphere.
Cells are seeded into 96 well black flat bottom plates at a density of 500 cells/well in 100 μL complete medium. After 24 hr the medium is replaced with 200 μL of fresh medium and compounds (dissolved into DMSO) are administrated to the cells using D300E Digital Dispenser (Tecan).
After 72 hr of incubation 100 μL from each well are collected and used for 2HG (R(−)-2-hydroxyglutarate) quantification. Levels of 2-HG in cell culture media are determined by LC-MS/MS. Cell supernatants (100 μL/well) are treated with 1 M aqueous trichloroacetic acid containing 130 μM of the internal standard 2-HG-d3 (20 μL/well) in a 96-well plate. The plates are sealed, mildly vortexed for 60 minutes, centrifuged at 4,000 RPM for 15 minutes, placed in a refrigerated autosampler taking care not to shake them, and aliquots of the upper part of the samples are directly injected in the chromatographic system. Calibration standards are obtained by ten folds dilution of aqueous 2-HG stock solutions with blank cell culture medium and denatured exactly in the same way as described above for samples. Samples and standards are assayed for 2-HG by reversed phase chromatography on a C18 column eluted with aqueous 0.15% formic acid and briefly washed with 90% methanol at the end of the run. 2-HG is determined by negative ion electrospray ionization with the internal standard method on a triple quadrupole mass spectrometer monitoring the MRM transitions 147>129 (2-HG) and 150>132 (2-HG-d3).
2-HG inhibition was calculated by comparing treated versus control data using Assay Explore (Symyx) software, with IC50 determined using a sigmoidal fitting algorithm.

Chain of IDH1^R132H (O75874 whole entry R132H, canonical isoform): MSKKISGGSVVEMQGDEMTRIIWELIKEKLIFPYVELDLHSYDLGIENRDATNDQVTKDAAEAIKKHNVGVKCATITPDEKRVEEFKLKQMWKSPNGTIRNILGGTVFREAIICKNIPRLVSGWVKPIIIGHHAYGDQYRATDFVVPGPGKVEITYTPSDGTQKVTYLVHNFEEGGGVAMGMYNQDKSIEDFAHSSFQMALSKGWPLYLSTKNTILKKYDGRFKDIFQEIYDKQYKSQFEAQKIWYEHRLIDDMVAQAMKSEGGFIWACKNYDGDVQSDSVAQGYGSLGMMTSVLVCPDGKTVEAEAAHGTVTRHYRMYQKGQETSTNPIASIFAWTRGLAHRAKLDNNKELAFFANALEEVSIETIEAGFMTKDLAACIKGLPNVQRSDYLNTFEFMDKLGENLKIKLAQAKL
Chain of IDH1^R132C (O75874 whole entry R132C): as the sequence (O75874 whole entry R132H, canonical isoform) above, with H132C counted along it
Chain of IDH1 wild type enzyme (O75874 whole entry): as the sequence (O75874 whole entry R132H, canonical isoform) above, with H132R counted along it

In the case of `C=CC(=O)N1CCN(C2(c3ccc([C@H](C)Nc4ncc5ccc(=O)n(C(C)C)c5n4)cc3)CCOCC2)CC1` [cpd 1, 2-{[(1S)-1-{4-[4-(4-acryloylpiperazin-1-yl)tetrahydro-2H-pyran-4-yl]phenyl}ethyl]amino}-8-(propan-2-yl)pyrido[2,3-d]pyrimidin-7(8H)-one], the IC50 in experiment [1] was determined as 3.5 nM; in experiment [2], 3.3 nM; in experiment [3], 111 nM; in experiment [4], 133 nM; in experiment [5], 2.4 nM.
The matching figures for `C=CC(=O)N1CCN(C(CC)(CC)c2ccc([C@H](C)Nc3ncc4ccc(=O)n(C(C)C)c4n3)cc2)CC1` [cpd 4, 2-{[(1S)-1-{4-[3-(4-acryloylpiperazin-1-yl)pentan-3-yl]phenyl}ethyl]amino}-8-(propan-2-yl)pyrido[2,3-d]pyrimidin-7(8H)-one]: 3.8 nM, 1.7 nM, 22.8 nM, 313 nM and 0.6 nM.
The matching figures for `C=CC(=O)N1CCN(C2(c3ccc([C@H](C)Nc4cc5c(ccc(=O)n5C(C)C)cn4)cc3)CCOCC2)CC1` [cpd 11, 7-{[(1S)-1-{4-[4-(4-acryloylpiperazin-1-yl)tetrahydro-2H-pyran-4-yl]phenyl}ethyl]amino}-1-(propan-2-yl)-1,6-naphthyridin-2(1H)-one]: 6.4 nM, 4.8 nM, 291 nM, 364 nM and 2.6 nM.
In the same order, the values of `C=CC(=O)N1CCN(C2(c3ccc([C@H](C)Nc4ncc5ccc(=O)n(C(C)C)c5n4)cc3)CCC(F)(F)CC2)CC1` [cpd 26, 2-{[(1S)-1-{4-[1-(4-acryloylpiperazin-1-yl)-4,4-difluorocyclohexyl]phenyl}ethyl]amino}-8-(propan-2-yl)pyrido[2,3-d]pyrimidin-7(8H)-one] are 3 nM, 2 nM, 126 nM, 126 nM and 0.5 nM.
On to `C=CC(=O)N1CCN(C2(c3ccc(C4(Nc5ncc6ccc(=O)n(C(C)C)c6n5)CC4)cc3)CCOCC2)CC1` [cpd 30, 2-[(1-{4-[4-(4-acryloylpiperazin-1-yl)tetrahydro-2H-pyran-4-yl]phenyl}cyclopropyl)amino]-8-(propan-2-yl)pyrido[2,3-d]pyrimidin-7(8H)-one], for which the IC50 in experiment [2] stood at 48 nM; in experiment [5], 7.5 nM.
In the same order, the values of `C=CC(=O)N1CCN(C2(c3ccc(C(C)(C)Nc4ncc5ccc(=O)n(C(C)C)c5n4)cc3)CCOCC2)CC1` [cpd 40, 2-[(2-{4-[4-(4-acryloylpiperazin-1-yl)tetrahydro-2H-pyran-4-yl]phenyl}propan-2-yl)amino]-8-(propan-2-yl)pyrido[2,3-d]pyrimidin-7(8H)-one] are 18 nM and 14.8 nM.
In the same order, the values of `C=CC(=O)N1CCN([C@@](C)(CN2CCOCC2)c2ccc([C@H](C)Nc3ncc4ccc(=O)n(C(C)C)c4n3)cc2)CC1` [cpd 43, 2-{[(1S)-1-{4-[(2R)-2-(4-acryloylpiperazin-1-yl)-1-(morpholin-4-yl)propan-2-yl]phenyl}ethyl]amino}-8-(propan-2-yl) pyrido[2,3-d]pyrimidin-7(8H)-one] are 15 nM and 3 nM.
In the same order, the values of `C=CC(=O)N1CCN(C2(c3ccc([C@H](C)Nc4cc5c(cn4)COC(=O)N5CC)cc3)CCOCC2)CC1` [cpd 44, 7-{[(1S)-1-{4-[4-(4-acryloylpiperazin-1-yl)tetrahydro-2H-pyran-4-yl]phenyl}ethyl]amino}-1-ethyl-1,4-dihydro-2H-pyrido[4,3-d][1,3]oxazin-2-one] are 9 nM and 4 nM.
Turning to `C=CC(=O)N1CC(N(C)C2(c3ccc([C@H](C)Nc4cc5c(ccc(=O)n5C(C)C)cn4)cc3)CCOCC2)C1` [cpd 48, 7-{[(1S)-1-(4-{4-[(1-acryloylazetidin-3-yl)(methyl)amino]tetrahydro-2H-pyran-4-yl}phenyl)ethyl]amino}-1-(propan-2-yl)-1,6-naphthyridin-2(1H)-one], the IC50 in experiment [2] came out at 47 nM; in experiment [5], 65 nM.
The matching figures for `C=CC(=O)N1CCN(C2(c3ccc(C4(Nc5ncc6ccc(=O)n(C(C)C)c6n5)CC4)cc3)CCCC2)CC1` [cpd 49, 2-[(1-{4-[1-(4-acryloylpiperazin-1-yl)cyclopentyl]phenyl}cyclopropyl)amino]-8-(propan-2-yl)pyrido[2,3-d]pyrimidin-7(8H)-one]: 17 nM and 3 nM.
The matching figures for `[2H]C([2H])=C([2H])C(=O)N1CCN(C2(c3ccc([C@H](C)Nc4ncc5ccc(=O)n(C(C)C)c5n4)cc3)CCOCC2)CC1` [cpd 51, 8-(propan-2-yl)-2-({(1S)-1-[4-(4-{4-[(^2H3)prop-2-enoyl]piperazin-1-yl}tetrahydro-2H-pyran-4-yl)phenyl]ethyl}amino) pyrido[2,3-d]pyrimidin-7(8H)-one]: 7 nM and 2.4 nM.
In the same order, the values of `CC(C)n1c(=O)ccc2cnc(N[C@@H](C)c3ccc(C4(N(C)C5CN(C(=O)C(F)Cl)C5)CCC(F)(F)CC4)cc3)nc21` (stereo partly drawn) [cpd 53, 2-{[(1S)-1-(4-{1-[{1-[chloro(fluoro)acetyl]azetidin-3-yl}(methyl)amino]-4,4-difluorocyclohexyl}phenyl)ethyl]amino}-8-(propan-2-yl)pyrido[2,3-d]pyrimidin-7(8H)-one] are 28 nM and 40 nM.

One may read the IC50 as the concentration that gives 50% inhibition.
